US9212151B2, “Heterocyclic compounds useful for kinase inhibition” (Amitech Therapeutic Solutions, Inc., priority 2010, dated 2015)

How the values were obtained:
Tumor cells (A549) = assay: MTT cell viability assay, compounds at 5, 1 and 0.2 μM, 48 hours; assay type: cell-based
How it was run: (§1)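 A549 cells were seeded at 2500/well in DMEM + 10% FBS, grown overnight, then exposed to compound for 48 h. Viability was read by MTT (5 mg/ml, 4 h), with formazan dissolved in DMSO and absorbance measured at 560/570 nm to give survival rate.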

[1] = as above; assay type: cell-based; conditions: human, A549 tumor cells
How it was run: as §1

| SMILES | viability at 48 h, 0.2 µM ([1]; 0.2 μM) [%] | viability at 48 h, 1 µM ([1]; 1 μM) [%] | viability at 48 h, 5 µM ([1]; 5 μM) [%] | also measured |
| --- | --- | --- | --- | --- |
| Cc1cc(Oc2cccc(-c3nnc(Nc4cccc(C(F)(F)F)c4)[nH]3)c2)nc(N)n1 [Compound 95] | – | – | – | % Viability A549 (Tumor cells (A549); 0.2 μM): +++ (+++: >70%); % Viability A549 (Tumor cells (A549); 1 μM): +++ (+++: >70%); % Viability A549 (Tumor cells (A549); 5 μM): ++ (++: 50-70%) |
| CCc1cc(Oc2ccc(-c3nnc(Nc4cccc(C(F)(F)F)c4)[nH]3)cc2)nc(N)n1 [Compound 77] | > 70 | 50 to 70 | 50 to 70 | – |
| CCc1nc(N)cc(Oc2cccc(-c3nnc(Nc4cccc(C(F)(F)F)c4)[nH]3)c2)n1 [Compound 99] | > 70 | > 70 | 50 to 70 | – |
| FC(F)(F)c1cccc(Nc2nnc(-c3cccc(Oc4nccc5ccccc45)c3)[nH]2)c1 [Compound 166] | > 70 | > 70 | > 70 | – |
| COCCOCCSc1nc(N)cc(Oc2ccc(-c3nnc(Nc4cccc(C(F)(F)F)c4)[nH]3)cc2)n1 [Compound 113] | > 70 | > 70 | – | – |
| CSc1nc(N)cc(Oc2cccc(-c3nnc(Nc4cccc(C(F)(F)F)c4)[nH]3)c2)n1 [Compound 14] | 50 to 70 | 50 to 70 | 50 to 70 | – |
| CSc1nc(N)cc(Oc2ccc(-c3nnc(Nc4cc(C)ccc4F)[nH]3)cc2)n1 [Compound 121] | > 70 | 50 to 70 | < 50 | – |
| FC(F)(F)c1cccc(Nc2nnc(-c3cccc(Oc4ccncc4C(F)(F)F)c3)[nH]2)c1 [Compound 20] | > 70 | > 70 | 50 to 70 | – |
| COC(=O)c1cccc(Nc2nnc(-c3ccc(Oc4cc(N)nc(SC)n4)cc3)[nH]2)c1 [Compound 138] | > 70 | > 70 | < 50 | – |
| COCCOc1cc(Oc2cccc(-c3nnc(Nc4cccc(C(F)(F)F)c4)[nH]3)c2)nc(N)n1 [Compound 58] | > 70 | > 70 | > 70 | – |
| FC(F)(F)c1cccc(Nc2nnc(-c3ccc(Oc4ccnc5cc(OCc6ccccc6)ccc45)cc3)[nH]2)c1 [Compound 187] | > 70 | > 70 | > 70 | – |
| Cc1nccc(Oc2cccc(-c3nnc(Nc4cccc(C(F)(F)F)c4)[nH]3)c2)n1 [Compound 55] | 50 to 70 | 50 to 70 | < 50 | – |
| FC(F)(F)c1cccc(Nc2nnc(-c3ccc(Oc4ccnc(Cl)c4)cc3)o2)c1 [Compound 30] | > 70 | > 70 | 50 to 70 | – |
| CSc1nc(N)cc(Oc2ccc(Nc3nnc(-c4cccc(Cl)c4)[nH]3)cc2)n1 [Compound 180] | > 70 | > 70 | 50 to 70 | – |
| FC(F)(F)c1cccc(Nc2nnc(-c3ccc(Oc4ncnc5[nH]ccc45)cc3)o2)c1 [Compound 32] | > 70 | > 70 | > 70 | – |
| CSc1nc(N)cc(Oc2ccc(-c3cnc(Nc4cccc(C(F)(F)F)c4)[nH]3)cc2)n1 [Compound 199] | – | – | – | viability at 48 h, 0.2 µM ([1]; 0.2 μM compound): < 50%; viability at 48 h, 1 µM ([1]; 1 μM compound): < 50%; viability at 48 h, 5 µM ([1]; 5 μM compound): < 50% |
| Cc1nc(C(F)(F)F)nc(Oc2ccc(-c3nnc(Nc4cccc(C(F)(F)F)c4)[nH]3)cc2)c1C [Compound 157] | > 70 | > 70 | > 70 | – |
| CSc1nc(N)cc(Oc2ccc(-c3nnc(Nc4cccc(C(F)(F)F)c4)s3)cc2)n1 [Compound 44] | > 70 | > 70 | > 70 | – |
| FC(F)(F)c1cccc(Nc2nnc(-c3cccc(Oc4ccncc4)c3)[nH]2)c1 [Compound 17] | > 70 | 50 to 70 | 50 to 70 | – |
| CSc1nc(N)cc(Oc2ccc(-c3nnc(Nc4cccc(C(=O)O)c4)[nH]3)cc2)n1 [Compound 153] | > 70 | > 70 | > 70 | – |
| COc1cc(Oc2ccc(-c3nnc(Nc4cccc(C(F)(F)F)c4)[nH]3)cc2)ccn1 [Compound 73] | > 70 | > 70 | < 50 | – |
| Nc1cc(Oc2ccc(-c3nnc(Nc4cccc(C(F)(F)F)c4)o3)cc2)nc(N)n1 [Compound 24] | > 70 | > 70 | > 70 | – |
| COc1ccc(Nc2nnc(-c3cccc(C(F)(F)F)c3)[nH]2)cc1 [Compound 183] | > 70 | > 70 | > 70 | – |
| Fc1ccc2c(Oc3cccc(-c4nnc(Nc5cccc(C(F)(F)F)c5)[nH]4)c3)ccnc2c1 [Compound 192] | > 70 | > 70 | > 70 | – |
| COc1ccc2c(Oc3cccc(-c4nnc(Nc5cccc(C(F)(F)F)c5)[nH]4)c3)ncnc2c1 [Compound 87] | > 70 | > 70 | > 70 | – |
| CSc1nc(N)cc(Oc2ccc(-c3nnc(NC4CCCCC4)[nH]3)cc2)n1 [Compound 155] | > 70 | > 70 | < 50 | – |
